Source: BindingDB's records for doi:10.1021/jm701358v (2008)

Target: Bcl-xL (Homo sapiens)
Test: Binding affinity to human Bcl-xL protein by fluorescence polarization assay

Ki: 1110 nM
SMILES: O=C(c1ccc(Oc2ccccc2)cc1)c1cc(C(=O)c2nc3ccccc3s2)c(O)c(O)c1O
